Laboratory results reported in patent publication US20260055083A1, “APOL1 INHIBITORS AND METHODS OF USE” (Maze Therapeutics, Inc., priority 2022, published 2026).

What was measured:
APOL1 G2 [1] = target: T1, APOL1 G2 (Homo sapiens, UniProt O14791, DEL388-389); experiment: APOL1 G2 HEK293 rescue of cell death caused by overexpression of APOL1 (CellTiter-Glo); format: cell-based; settings: HEK293/T-REx APOL1 G2 clone #2, doxycycline induction, 17 hours, CellTiter-Glo luminescence; reversal of cell death; geometric mean of at least 2 assay runs
T1 construct: expressed in transfected cells; host or cells: HEK293/T-REx APOL1 G2 clone #2, doxycycline-inducible
T1 sequence (O14791 with tags, fused parts or gaps DEL388-389): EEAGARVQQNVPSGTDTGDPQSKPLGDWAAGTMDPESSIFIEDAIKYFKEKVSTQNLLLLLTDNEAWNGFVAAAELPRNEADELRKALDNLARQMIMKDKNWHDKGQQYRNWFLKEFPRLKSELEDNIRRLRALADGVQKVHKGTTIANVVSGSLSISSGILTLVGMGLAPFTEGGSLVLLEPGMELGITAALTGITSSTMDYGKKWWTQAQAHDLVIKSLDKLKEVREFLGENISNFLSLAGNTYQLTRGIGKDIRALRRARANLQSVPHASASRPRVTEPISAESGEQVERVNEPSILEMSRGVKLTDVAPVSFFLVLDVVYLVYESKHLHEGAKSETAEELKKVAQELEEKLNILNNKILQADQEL
Summary of the method: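 Viability read by CellTiter-Glo luminescence after 17 h, 37 °C, in HEK293/T-REx cells expressing APOL1 G2 on 6 ng/mL doxycycline, 5,000 cells/well. Compounds tested as duplicate 8-point, 3-fold dilutions, 0.5% DMSO final; four-parameter logistic EC50, usually geometric mean of ≥2 days.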

APOL1 G2 [2] = target: T1, APOL1 G2; experiment: APOL1 G2 FLIPR calcium influx assay (HEK T-REx/GCaMP6f/APOL1 G2 K6.3 cells); format: cell-based; settings: HEK293 clone expressing GCaMP6f, doxycycline-induced APOL1 G2; prevention of calcium influx; geometric mean of at least 2 assay runs
Summary of the method: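 Cells express GCaMP6f stably and APOL1 G2 after a 6 h doxycycline induction. Duplicate 8-point dilutions sit 10 min at room temperature in Ca2+-free Tyrode's (pH 7.4), then Ca2+ is injected to 5 mM final and the FLIPR signal recorded. AC50s are geometric means across ≥2 days.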

SMILES	AC50 (APOL1 G2 [2])	EC50 (APOL1 G2 [1])
CC(=O)N(C)CCS(=O)(=O)c1ccc(OC[C@H]2C[C@@H](C)N(CCc3cccc(C#N)c3)C2)cc1 [Compound 67, N-[2-(4-{[(3S,5R)-1-[2-(3-cyanophenyl)ethyl]-5-methylpyrrolidin-3-yl]methoxy}benzenesulfonyl)ethyl]-N-methylacetamide]	337 nM	50.3 nM
C[C@@H]1C[C@H](COc2ccc(S(=O)(=O)CCO)cc2)CN1C1CCc2ccc(Cl)cc2C1 (single isomer, unassigned) [Compound 62, 2-(4-{[(3S,5R)-1-[(2R or 2S)-7-chloro-1,2,3,4-tetrahydronaphthalen-2-yl]-5-methylpyrrolidin-3-yl]methoxy}benzenesulfonyl)ethan-1-ol]	462 nM	201 nM
C[C@@H]1CN(CC(O)c2cccc(C#N)c2)C[C@H]1COc1ccc(S(C)(=O)=O)nc1 (single isomer, unassigned) [Compound 105, 3-[(1S or 1R)-1-hydroxy-2-[(3S,4S)-3-{[(6-methanesulfonylpyridin-3-yl)oxy]methyl}-4-methylpyrrolidin-1-yl]ethyl]benzonitrile]	> 10000 nM	> 10000 nM
C[C@@H]1C[C@H](COc2ccc(S(C)(=O)=O)cc2)CN1C1Cc2ccc(Cl)cc2C1 (single isomer, unassigned) [Compound 3, (2R,4S)-1-[(2R or 2S)-5-chloro-2,3-dihydro-1H-inden-2-yl]-4-[(4-methanesulfonylphenoxy)methyl]-2-methylpyrrolidine]	721 nM	398 nM
CS(=O)(=O)c1ccc(OC[C@@H]2CCCN(C3CCc4ccc(Cl)cc4C3)C2)cc1 (single isomer, unassigned) [Compound 132, (3R)-1-[(2S or 2R)-7-chloro-1,2,3,4-tetrahydronaphthalen-2-yl]-3-[(4-methanesulfonylphenoxy)methyl]piperidine]	446 nM	924 nM
C[C@@H]1CN(C2CCc3ccc(Cl)cc3C2)C[C@H]1COc1ccc(S(C)(=O)=O)cc1 (stereo partly drawn) [Compound 14, (3S,4S)-1-[7-chloro-1,2,3,4-tetrahydronaphthalen-2-yl]-3-[(4-methanesulfonylphenoxy)methyl]-4-methylpyrrolidine]	767 nM	544 nM
C[C@@H]1C[C@H](COc2ccc(S(C)(=O)=O)nc2)CN1CCc1cccc(C#N)c1 [Compound 64, 3-{2-[(2R,4S)-4-{[(6-methanesulfonylpyridin-3-yl)oxy]methyl}-2-methylpyrrolidin-1-yl]ethyl}benzonitrile]	287 nM	50.9 nM
Cc1cc(OC[C@H]2C[C@@H](C)N(CCc3cccc(C#N)c3)C2)cnc1S(C)(=O)=O (single isomer, unassigned) [Compound 30]	185 nM	38.4 nM
C[C@@H]1C[C@H](COc2ccc(S(C)(=O)=O)cc2)CN1CC(CO)c1cc(Cl)cc(C#N)c1 (single isomer, unassigned) [Compound 129, 3-chloro-5-[(2R or 2S)-1-hydroxy-3-[(2R,4S)-4-[(4-methanesulfonylphenoxy)methyl]-2-methylpyrrolidin-1-yl]propan-2-yl]benzonitrile]	4250 nM	2140 nM
C[C@@H]1C[C@H](COc2ccc(S(=O)(=O)CCCS(C)(=O)=O)cc2)CN1C1CCc2ccc(Cl)cc2C1 (single isomer, unassigned) [Compound 53, (2R,4S)-1-[(2R or 2S)-7-chloro-1,2,3,4-tetrahydronaphthalen-2-yl]-4-{[4-(3-methanesulfonylpropanesulfonyl)phenoxy]methyl}-2-methylpyrrolidine]	999 nM	279 nM
CC(Cc1cc(Cl)cc(C#N)c1)N1C[C@@H](COc2ccc(S(C)(=O)=O)cc2)[C@H](C)C1 (single isomer, unassigned) [Compound 19, 3-chloro-5-[(2R or 2S)-2-[(3S,4S)-3-[(4-methanesulfonylphenoxy)methyl]-4-methylpyrrolidin-1-yl]propyl]benzonitrile]	444 nM	640 nM
CC(C(O)c1cc(Cl)cc(C#N)c1)N1C[C@@H](COc2ccc(S(C)(=O)=O)cc2)C[C@H]1C (single isomer, unassigned) [Compound 97, 3-chloro-5-[(1S,2S or 1R,2R or 1R,2S or 1S,2R)-1-hydroxy-2-[(2R,4S)-4-[(4-methanesulfonylphenoxy)methyl]-2-methylpyrrolidin-1-yl]propyl]benzonitrile]	813 nM	2100 nM
C[C@@H]1C[C@H](COc2ccc(S(=O)(=O)CCCS(C)(=O)=O)cc2)CN1C1CCc2c(C#N)cccc2C1 (single isomer, unassigned) [Compound 42, (6R or 6S)-6-[(2R,4S)-4-{[4-(3-methanesulfonylpropanesulfonyl)phenoxy]methyl}-2-methylpyrrolidin-1-yl]-5,6,7,8-tetrahydronaphthalene-1-carbonitrile]	1030 nM	227 nM
C[C@@H]1C[C@H](COc2ccc(S(C)(=O)=O)cc2)CN1C1CCc2c(C#N)cccc2C1 (single isomer, unassigned) [Compound 135, (6S or 6S)-6-[(2R,4S)-4-[(4-methanesulfonylphenoxy)methyl]-2-methylpyrrolidin-1-yl]-5,6,7,8-tetrahydronaphthalene-1-carbonitrile]	576 nM	84.2 nM
CS(=O)(=O)C1(c2ccc(OC[C@@H]3CN(CCc4cc(Cl)cc(C#N)c4)CCN3)cc2)COC1 [Compound 111, 3-chloro-5-{2-[(3S)-3-{[4-(3-methanesulfonyloxetan-3-yl)phenoxy]methyl}piperazin-1-yl]ethyl}benzonitrile]	< 116 nM	137 nM
C[C@@H]1C[C@H](COc2ccc(S(C)(=O)=O)cc2)CN1C1CCc2ccc(Cl)cc2C1 (single isomer, unassigned) [Compound 5, (2R,4S)-1-[(2S or 2R)-7-chloro-1,2,3,4-tetrahydronaphthalen-2-yl]-4-[(4-methanesulfonylphenoxy)methyl]-2-methylpyrrolidine]	488 nM	47.6 nM
C[C@@H]1C[C@H](COc2ccc(S(C)(=O)=O)cc2)CN1CC(CO)c1cc(Cl)cc(C#N)c1 (single isomer, unassigned) [Compound 130, 3-chloro-5-[(2S or 2R)-1-hydroxy-3-[(2R,4S)-4-[(4-methanesulfonylphenoxy)methyl]-2-methylpyrrolidin-1-yl]propan-2-yl]benzonitrile]	1940 nM	303 nM

Continued, in another order:

AC50 (APOL1 G2 [2])	SMILES	EC50 (APOL1 G2 [1])
138 nM	CS(=O)(=O)c1ccc(OC[C@@H]2CN(CCc3cccc(Cl)c3)C[C@H]2CO)cc1 [Compound 21, [(3S,4S)-1-[2-(3-chlorophenyl)ethyl]-4-[(4-methanesulfonylphenoxy)methyl]pyrrolidin-3-yl]methanol]	280 nM
708 nM	C[C@@H]1CN(CCc2cccc(C#N)c2)C[C@H]1COc1ccc(S(C)(=O)=NCCS(C)(=O)=O)cc1 (stereo partly drawn) [Compound 68, 3-{2-[(3S,4S)-3-[(4-{[(2-methanesulfonylethyl)imino](methyl)oxo-λ^6-sulfanyl}phenoxy)methyl]-4-methylpyrrolidin-1-yl]ethyl}benzonitrile]	366 nM
1110 nM	C[C@@H]1CN(C(CO)Cc2cc(Cl)cc(C#N)c2)C[C@H]1COc1ccc(S(C)(=O)=O)cc1 (single isomer, unassigned) [Compound 121, 3-chloro-5-[(2R or 2S)-3-hydroxy-2-[(3S,4S)-3-[(4-methanesulfonylphenoxy)methyl]-4-methylpyrrolidin-1-yl]propyl]benzonitrile]	> 10000 nM
1740 nM	C[C@@H]1CN(CC(CO)c2cc(Cl)cc(C#N)c2)C[C@H]1COc1ccc(S(C)(=O)=O)cc1 (stereo partly drawn) [Compound 126, 3-chloro-5-(1-hydroxy-3-((3S,4S)-3-methyl-4-((4-(methylsulfonyl)phenoxy)methyl)pyrrolidin-1-yl)propan-2-yl)benzonitrile]	2760 nM
1110 nM	C[C@@H]1CN(C(CO)Cc2cc(Cl)cc(C#N)c2)C[C@H]1COc1ccc(S(C)(=O)=O)cc1 (single isomer, unassigned) [Compound 122, 3-chloro-5-[(2S or 2R)-3-hydroxy-2-[(3S,4S)-3-[(4-methanesulfonylphenoxy)methyl]-4-methylpyrrolidin-1-yl]propyl]benzonitrile]	789 nM
94.6 nM	Cc1cc(OC[C@@H]2CN(CCc3cccc(C#N)c3)C[C@H]2C)ccc1S(C)(=O)=O [Compound 83, 3-{2-[(3S,4S)-3-[(4-methanesulfonyl-3-methylphenoxy)methyl]-4-methylpyrrolidin-1-yl]ethyl}benzonitrile]	94.3 nM
236 nM	C[C@@H]1CN(CCc2cccc(C#N)c2)C[C@H]1COc1ccc(S(C)(=O)=NCCS(C)(=O)=O)cc1 (single isomer, unassigned) [Compound 70]	342 nM
